Assay results as given in ChEMBL document CHEMBL5550084, “Ferroptosis and its modulators: A raising target for cancer and Alzheimer's disease” (Bioorg Med Chem, 2024).

What was measured:
[1] = Growth inhibition of human BJeLR cell by Trypan blue staining based analysis; format: toxicity; conditions: BJeLR cells
[2] = biological target: T1, Cystine/glutamate transporter (Homo sapiens, UniProt Q9UPY5); assay: Inhibition of Xc- in human HT-1080 cells assessed as decrease in glutamate release incubated for 2 hrs by Amplex red assay; format: cell-based
T1 sequence (Q9UPY5 whole entry): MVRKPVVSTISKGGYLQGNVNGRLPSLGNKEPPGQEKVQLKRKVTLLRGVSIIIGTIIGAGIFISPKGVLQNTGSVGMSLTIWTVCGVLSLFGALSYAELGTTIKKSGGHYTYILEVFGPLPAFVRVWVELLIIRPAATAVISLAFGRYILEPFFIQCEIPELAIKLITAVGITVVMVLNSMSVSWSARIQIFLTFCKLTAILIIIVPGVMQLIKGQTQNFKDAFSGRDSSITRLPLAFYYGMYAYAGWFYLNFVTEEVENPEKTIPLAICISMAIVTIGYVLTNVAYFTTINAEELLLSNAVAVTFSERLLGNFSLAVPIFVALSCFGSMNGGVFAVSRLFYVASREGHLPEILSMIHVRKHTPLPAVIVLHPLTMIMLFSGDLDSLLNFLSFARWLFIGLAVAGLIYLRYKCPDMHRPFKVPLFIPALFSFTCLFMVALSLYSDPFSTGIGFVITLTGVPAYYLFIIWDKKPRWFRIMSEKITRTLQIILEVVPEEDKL

| IC50 [2] | SMILES | GI50 [1] |
| --- | --- | --- |
| – | CC(C)Oc1ccc(C=O)cc1-n1c(CN2CCN(C(=O)COc3ccc(Cl)cc3)CC2)nc2ccccc2c1=O | 8 nM |
| 10 nM | CC(C)Oc1ccc(C(=O)CN2CCOCC2)cc1-n1c(CN2CCN(C(=O)COc3ccc(Cl)cc3)CC2)nc2ccccc2c1=O | 427 nM |
| – | CC(C)Oc1ccc(CN2CCNCC2)cc1-n1c(CN2CCN(C(=O)COc3ccc(Cl)cc3)CC2)nc2ccccc2c1=O | 0.9 nM |
| – | CCOc1ccccc1-n1c(C(C)N2CCN(C(=O)COc3ccc(Cl)cc3)CC2)nc2ccccc2c1=O (centres undefined) [ERASTIN] | 1.7 nM |
| – | CC(C)Oc1ccncc1-n1c(CN2CCN(C(=O)COc3ccc(Cl)cc3)CC2)nc2ccccc2c1=O | > 10 nM |
| 300 nM | CC(C)Oc1ccc(C(=O)CN2CCN(C)CC2)cc1-n1c(CN2CCN(C(=O)COc3ccc(Cl)cc3)CC2)nc2ccccc2c1=O | 474 nM |
| – | CC(C)Oc1ccc(CN2CCOCC2)cc1-n1c(CN2CCN(C(=O)COc3ccc(Cl)cc3)CC2)nc2ccccc2c1=O | 0.13 nM |
